Assays:
[1] = tested on: Human salivary cells; assay: Salisphere formation assay, human; assay type: cell-based; conditions: 25 μM Alda-341; cells from normal salivary gland tissue of head and neck cancer patients
Description: Salisphere formation assay: Cells isolated from mouse submandibular glands (SMG) were FACS sorted using cell surface markers EpCAM and CD24 as previously described and seeded on matrigel (BD Biosciences, BD356235). Cells were grown in DMEM/F12+GlutaMax (Gibco, 10565-018) media containing 10% FBS, 1× anti-anti, 1% N2 supplement (Gibco), 20 ng/mL […] (Sigma-Aldrich), 20 ng/mL fibroblast growth factor-2 (Sigma-Aldrich), 10 μg/mL insulin (Sigma-Aldrich), 1 μM dexamethasone (Sigma-Aldrich), 10 μM […] (Stem Cell Technologies). Spheres were passaged every 7 days by dissociating into single cells by incubating in 1 mg/mL dispase (BD Biosciences) for 20 minutes and 0.25% trypsin-EDTA for 20 minutes. Spheres were grown for 7 days and imaged with a BZ-X710 Keyence microscope using the z-stack function. Images were stitched together into a single image and analyzed using ImageJ (NIH) to quantify sphere number and area. Experiments were repeated at least 3 independent times.
Sphere number per well quantified by Image J (NIH). 4 replicates per group.
Salivary gland tissue dissociation: Mouse and human salivary gland cells were isolated as previously described in, Szlavik, V., Szabo, B., Vicsek, T., Barabas, J., Bogdan, S., Gresz, V., Varga, G., O'Connell, B., and Vag, J. (2008) Differentiation of primary human submandibular gland cells cultured on basement membrane extract. […]

[2] = tested on: E13.5 embryonic SMG epithelia; assay: Embryonic epithelial rudiment cultures; assay type: cell-based, mouse
Source text: Embryonic epithelial rudiment cultures: Epithelia and mesenchyme were separated using dispase treatment and mechanical dissection and cultured in a drop of laminin on a nucleopore filter over serum-free DMEM/F12 containing holotransferrin and ascorbic acid (complete media) as described for the E13 submandibular gland (Steinberg, Z., Myers, C., Heim, V. M., Lathrop, C. A., Rebustini, I. T., Stewart, J. S., Larsen, M., and Hoffman, M. P. (2005) FGFR2b signaling regulates ex vivo submandibular gland epithelial cell proliferation and branching morphogenesis. Development (Cambridge, England) 132, 1223-1234). Epithelia were cultured with 400 ng/ml FGF10 (R&D Systems) and 0.5 μl/ml heparin sulfate (Sigma Aldrich) in the presence or absence of 25-200 μM ALDH341 or vehicle (PEG) and were subjected to RNA isolation or fixed for immunostaining after 24-48 h.
N=6-7 epithelia per group.
[…] confocal section of all three markers (top) and averaged confocal sections of c-KIT only (bottom).
Samples were tested in triplicate.
Immunohistochemistry: Embryonic rudiment immunofluorescence analysis has been previously described in, Knox, S. M., Lombaert, I. M., Reed, X., Vitale-Cross, L., Gutkind, J. S., and Hoffman, M. P. (2010) Parasympathetic innervation maintains epithelial progenitor cells during salivary organogenesis. Science (New York, N.Y.) 329, 1645-1647. In brief, tissue was fixed with 4% PFA for 20-30 min followed by permeabilizing with 0.1-0.3% Triton-X. Tissue was blocked overnight at 4° C. with 10% Donkey Serum (Jackson Laboratories), 1% BSA (Sigma Aldrich), and MOM IgG-blocking reagent (Vector Laboratories) in 0.01% PBS-Tween-20. SGs were incubated with primary antibodies overnight at 4° C.: rabbit anti-cKIT (1:200, Santa Cruz Biotech, M14), and rat anti-E-cadherin (1:300, Life Technologies, 13-1900). Antibodies were detected using Cy2-, Cy3- or Cy5-conjugated secondary Fab fragment antibodies (Jackson Laboratories) and nuclei stained using Hoescht 33342 (1:1000, Sigma Aldrich). Fluorescence was analyzed using a Leica Sp5 confocal microscope and NIH ImageJ software.
qPCR: RNA was isolated from whole tissue using RNAqueous Micro Kit (Ambion). Total RNA samples were DNase-treated (Ambion), prior to cDNA synthesis using SuperScript reagents (Invitrogen). SYBRgreen qPCR was performed using 1 ng of cDNA and primers designed using Primer3 and Beacon Designer software or found using PrimerBank (http://pga.mgh.harvard.edu/primerbank/). Melt-curves and primer efficiency were determined as previously described (Hoffman, M. P., Kidder, B. L., Steinberg, Z. L., Lakhani, S., Ho, S., Kleinman, H K., and Larsen, M. (2002) Gene expression profiles of mouse submandibular gland development: FGFR1 regulates branching morphogenesis in vitro through BMP- and FGF-dependent mechanisms. Development (Cambridge, England) 129, 5767-5778). Gene expression was normalized to the housekeeping gene S29 (Rps29).

[3] = tested on: salispheres of C57BL/6 mice; assay: Organoid formation assay; assay type: cell-based, mouse; conditions: 25 μM Alda-341, 7 d
Description: Organoids, defined as having greater than or equal to 5 buds, were blindly counted and quantified as a ratio of organoid number to total number of organoids and undifferentiated spheres. 4 replicates per group. All error bars represent SEM. *=p<0.05; **=p<0.01; ***=p<0.001 (Student's t-test).
Organoid formation assay: Spheres were dissociated in 1 mg/mL dispase (BD Biosciences) for 20 minutes and resuspended in 80% collagen, 10% 10× F12, and 10% Solution C (2.2 g NaHCO3 in 100 mL of 0.05 N NaOH and 200 mM HEPES) and combined with 60% matrigel. 200 spheres per well were plated in a Millicell cell culture insert (EMD Millipore) with sphere media. Organoids defined as having greater than or equal to 5 buds formed after 2-3 d in culture and were grown for 7 d before imaging with a BZ-X710 Keyence microscope using the z-stack function. Images were stitched together into a single image and the number of differentiated organoids and undifferentiated spheres were blindly counted and quantified as a ratio of organoid number to total number of organoids and undifferentiated spheres. Experiments were repeated at least three independent times.

[4] = 200 μM Alda-341, RT-qPCR vs vehicle control

Structure (SMILES): C=C(C)[C@H]1CC=C(C)CC1 [Alda-341, D-limonene]
- more salispheres than untreated cells [1]: about 30%
- localisation of c-Kit+ cells (immunofluorescence) ([2]; 200 μM Alda-341, 24 h): limited to the end buds only
- expression of acinar progenitor marker Sox10 [2, 4]: Increased expression
- transcript level of acinar maturation marker Aqp5 [2, 4]: increased transcript levels
- transcript level of acinar maturation marker Mist1 [2, 4]: increased transcript levels
- number of end buds ([2]; cultured 24 h, 100 μM and 200 μM Alda-341): dose-dependent increase
- epithelial area ([2]; cultured 24 h, 100 μM and 200 μM Alda-341, normalized to vehicle control): dose-dependent increase
- more organoids than vehicle-treated control [3]: 25%

— US20190060249A1 (priority 2017, published 2019)
